Earlier results in patent publication US20040132806A1, “Pravastatin pharmaceutical formulations and methods of their use” (priority 2002, published 2004).
Where two headings read alike, the source gives them in different places.

What was measured:
[1] = intravenous, radiolabeled
[2] = not given; remark: listed apart in the source
[3] = patients treated with pravastatin (Schatke et al, 1992)
[4] = such as the stomach

CC[C@H](C)C(=O)O[C@H]1C[C@H](O)C=C2C=C[C@H](C)[C@H](CC[C@@H](O)C[C@@H](O)CC(=O)O)[C@H]21 [pravastatin, Pravastatin]
share of total body clearance by non-renal routes (biliary excretion and biotransformation) [1]: ~53% | share of total body clearance via renal excretion [1]: approximately 47% | decrease of systemic bioavailability following a bedtime dose (PM) compared to morning (AM) dose (PM vs AM dose): 60% | average oral absorption (based on urinary recovery of radiolabeled drug): 34% | radiolabeled oral dose excreted in the feces (oral radiolabeled dose): ~70% | radiolabeled oral dose excreted in urine (oral radiolabeled dose): Approximately 20% | hepatic extraction ratio ([2]; Lennernas & Fager, 1997): 0.45 | hepatic extraction ratio ([2]; Quion & Jones, 1994): 0.66 | first-pass extraction in the liver (extraction ratio) ([2]; in vivo): 0.66 | myopathy [3]: Severe myopathy has been observed | stability in acidic conditions [4]: poor stability
